What all share (experiment): biochemical
Holding throughout (format): binding

Test [1] has as its target T1, panel of 442 kinases (Homo sapiens, UniProt P04049).
T1 construct: purchased Ambit Biosciences (scanMAXX KINOMEscan)
Particulars: kinase RAF1; for remaining activity at 1 µM: read-out: RAF1 (% of control at 1 µM).

The target of test [2] is T2, panel of 442 kinases (Homo sapiens, UniProt Q8NG66).
T2 construct: purchased Ambit Biosciences (scanMAXX KINOMEscan)
T2 sequence (Q8NG66 1-645): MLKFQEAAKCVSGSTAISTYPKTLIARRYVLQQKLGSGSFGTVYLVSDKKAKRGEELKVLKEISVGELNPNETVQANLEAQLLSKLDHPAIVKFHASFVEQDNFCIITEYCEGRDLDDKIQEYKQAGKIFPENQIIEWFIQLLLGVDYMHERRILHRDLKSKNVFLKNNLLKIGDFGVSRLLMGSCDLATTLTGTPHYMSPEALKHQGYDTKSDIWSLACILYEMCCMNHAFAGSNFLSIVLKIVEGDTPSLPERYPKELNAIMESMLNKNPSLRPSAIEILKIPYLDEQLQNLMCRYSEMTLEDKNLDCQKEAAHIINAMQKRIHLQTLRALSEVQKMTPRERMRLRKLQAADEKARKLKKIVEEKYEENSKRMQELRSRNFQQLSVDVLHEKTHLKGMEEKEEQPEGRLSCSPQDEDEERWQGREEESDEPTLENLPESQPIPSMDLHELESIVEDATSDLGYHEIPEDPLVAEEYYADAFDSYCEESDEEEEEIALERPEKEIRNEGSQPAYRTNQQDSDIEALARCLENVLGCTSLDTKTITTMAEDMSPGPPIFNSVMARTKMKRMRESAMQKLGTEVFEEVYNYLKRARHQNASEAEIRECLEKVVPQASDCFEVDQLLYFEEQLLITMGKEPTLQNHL
The following applies: kinase NEK11; for remaining activity at 1 µM: read-out: % of control at 1 µM.

In test [3] the target is T3, panel of 442 kinases (Homo sapiens, UniProt P10721, V559D).
T3 construct: purchased Ambit Biosciences (scanMAXX KINOMEscan)
Particulars: kinase KIT(V559D); for remaining activity at 1 µM: read-out: % of control at 1 µM.

Test [4] concerns the target T4, panel of 442 kinases (Homo sapiens, UniProt Q9Y2H1).
T4 construct: purchased Ambit Biosciences (scanMAXX KINOMEscan)
The following applies: kinase NDR2; for remaining activity at 1 µM: read-out: % of control at 1 µM.

Test [5] has as its target T5, panel of 442 kinases (Homo sapiens, UniProt P57078).
T5 construct: purchased Ambit Biosciences (scanMAXX KINOMEscan)
T5 sequence (P57078 1-832): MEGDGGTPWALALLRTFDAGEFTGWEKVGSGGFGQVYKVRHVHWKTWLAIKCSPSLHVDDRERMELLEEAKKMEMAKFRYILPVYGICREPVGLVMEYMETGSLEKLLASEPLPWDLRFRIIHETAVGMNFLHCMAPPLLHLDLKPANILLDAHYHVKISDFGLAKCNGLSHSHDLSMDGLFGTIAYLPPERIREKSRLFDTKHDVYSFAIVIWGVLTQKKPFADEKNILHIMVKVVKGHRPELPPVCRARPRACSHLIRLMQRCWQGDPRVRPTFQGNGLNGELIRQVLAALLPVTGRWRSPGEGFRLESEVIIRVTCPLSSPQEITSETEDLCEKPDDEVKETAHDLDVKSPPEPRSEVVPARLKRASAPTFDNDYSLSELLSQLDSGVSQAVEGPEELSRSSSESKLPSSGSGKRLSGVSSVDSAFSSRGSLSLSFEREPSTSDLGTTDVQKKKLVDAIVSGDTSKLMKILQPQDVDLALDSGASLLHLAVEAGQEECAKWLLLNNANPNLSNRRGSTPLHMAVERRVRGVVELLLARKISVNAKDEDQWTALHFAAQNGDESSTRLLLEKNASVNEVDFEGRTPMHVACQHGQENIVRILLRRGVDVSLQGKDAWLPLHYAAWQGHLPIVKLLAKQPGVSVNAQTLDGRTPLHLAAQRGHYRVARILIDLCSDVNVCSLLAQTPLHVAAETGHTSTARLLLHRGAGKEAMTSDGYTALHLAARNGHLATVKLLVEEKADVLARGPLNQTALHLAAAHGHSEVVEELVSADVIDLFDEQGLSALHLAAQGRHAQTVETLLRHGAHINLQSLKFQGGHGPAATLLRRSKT
The following applies: kinase RIPK4; for remaining activity at 1 µM: read-out: RIPK4 (% of control at 1 µM).

For test [6], the target named is T6, panel of 442 kinases (Homo sapiens, UniProt P51957).
T6 construct: purchased Ambit Biosciences (scanMAXX KINOMEscan)
Particulars: kinase NEK4; for remaining activity at 1 µM: read-out: % of control at 1 µM.

Test [7] deals with T7, panel of 442 kinases (Homo sapiens, UniProt O75582).
T7 construct: purchased Ambit Biosciences (scanMAXX KINOMEscan)

Test [8] addresses T8, panel of 442 kinases (Homo sapiens, UniProt Q15208).
T8 construct: purchased Ambit Biosciences (scanMAXX KINOMEscan)
Particulars: kinase NDR1; for remaining activity at 1 µM: read-out: % of control at 1 µM.

Test [9] concerns the target T9, panel of 442 kinases (Homo sapiens, UniProt O15111).
T9 construct: purchased Ambit Biosciences (scanMAXX KINOMEscan)
T9 sequence (O15111 1-745): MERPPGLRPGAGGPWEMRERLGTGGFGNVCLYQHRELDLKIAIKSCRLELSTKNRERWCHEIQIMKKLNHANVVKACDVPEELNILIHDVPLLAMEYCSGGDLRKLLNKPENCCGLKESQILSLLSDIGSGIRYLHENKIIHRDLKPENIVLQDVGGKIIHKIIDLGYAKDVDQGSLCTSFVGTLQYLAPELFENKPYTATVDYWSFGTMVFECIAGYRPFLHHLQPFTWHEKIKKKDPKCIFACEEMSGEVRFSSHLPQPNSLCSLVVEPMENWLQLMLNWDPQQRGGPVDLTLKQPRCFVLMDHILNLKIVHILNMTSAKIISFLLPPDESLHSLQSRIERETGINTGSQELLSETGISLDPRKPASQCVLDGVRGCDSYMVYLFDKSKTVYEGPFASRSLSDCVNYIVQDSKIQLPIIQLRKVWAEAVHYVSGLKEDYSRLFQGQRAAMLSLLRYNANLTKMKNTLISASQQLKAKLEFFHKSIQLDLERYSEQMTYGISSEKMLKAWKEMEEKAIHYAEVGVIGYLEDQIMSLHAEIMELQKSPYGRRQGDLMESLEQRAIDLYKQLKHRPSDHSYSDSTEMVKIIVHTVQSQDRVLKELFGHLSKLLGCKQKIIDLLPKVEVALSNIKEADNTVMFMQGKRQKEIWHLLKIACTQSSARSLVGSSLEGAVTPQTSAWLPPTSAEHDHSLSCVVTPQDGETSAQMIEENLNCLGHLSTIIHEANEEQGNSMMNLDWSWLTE
Particulars: kinase IKK-alpha; for remaining activity at 1 µM: read-out: % of control at 1 µM.

[10] abbreviates: kinase RPS6KA5(Kin.Dom.1-N-terminal), read-out: RPS6KA5(Kin.Dom.1-N-terminal) (% of control at 1 µM).
The mark [11] stands for this setting: kinase RPS6KA5(Kin.Dom.2-C-terminal), read-out: RPS6KA5(Kin.Dom.2-C-terminal) (% of control at 1 µM).
Where [12] appears, read: 10 µM, read-out: % of control at 10 µM.

Structures are written as SMILES. Read-outs that look alike come from different tables or passages of the source.

T4 sequence (Q9Y2H1 whole entry): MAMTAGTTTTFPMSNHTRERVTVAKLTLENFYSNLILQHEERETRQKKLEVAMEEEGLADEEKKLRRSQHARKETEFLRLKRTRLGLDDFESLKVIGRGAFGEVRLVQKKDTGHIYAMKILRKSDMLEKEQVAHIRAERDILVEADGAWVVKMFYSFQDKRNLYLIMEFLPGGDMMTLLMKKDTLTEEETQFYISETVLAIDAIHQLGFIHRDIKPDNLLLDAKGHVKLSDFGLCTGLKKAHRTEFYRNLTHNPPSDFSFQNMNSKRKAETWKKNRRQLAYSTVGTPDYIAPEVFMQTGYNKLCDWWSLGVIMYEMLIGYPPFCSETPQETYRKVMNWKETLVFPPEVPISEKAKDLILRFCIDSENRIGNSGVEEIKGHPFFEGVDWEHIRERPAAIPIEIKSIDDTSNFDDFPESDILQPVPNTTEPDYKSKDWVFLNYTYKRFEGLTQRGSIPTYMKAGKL
T6 sequence (P51957 whole entry): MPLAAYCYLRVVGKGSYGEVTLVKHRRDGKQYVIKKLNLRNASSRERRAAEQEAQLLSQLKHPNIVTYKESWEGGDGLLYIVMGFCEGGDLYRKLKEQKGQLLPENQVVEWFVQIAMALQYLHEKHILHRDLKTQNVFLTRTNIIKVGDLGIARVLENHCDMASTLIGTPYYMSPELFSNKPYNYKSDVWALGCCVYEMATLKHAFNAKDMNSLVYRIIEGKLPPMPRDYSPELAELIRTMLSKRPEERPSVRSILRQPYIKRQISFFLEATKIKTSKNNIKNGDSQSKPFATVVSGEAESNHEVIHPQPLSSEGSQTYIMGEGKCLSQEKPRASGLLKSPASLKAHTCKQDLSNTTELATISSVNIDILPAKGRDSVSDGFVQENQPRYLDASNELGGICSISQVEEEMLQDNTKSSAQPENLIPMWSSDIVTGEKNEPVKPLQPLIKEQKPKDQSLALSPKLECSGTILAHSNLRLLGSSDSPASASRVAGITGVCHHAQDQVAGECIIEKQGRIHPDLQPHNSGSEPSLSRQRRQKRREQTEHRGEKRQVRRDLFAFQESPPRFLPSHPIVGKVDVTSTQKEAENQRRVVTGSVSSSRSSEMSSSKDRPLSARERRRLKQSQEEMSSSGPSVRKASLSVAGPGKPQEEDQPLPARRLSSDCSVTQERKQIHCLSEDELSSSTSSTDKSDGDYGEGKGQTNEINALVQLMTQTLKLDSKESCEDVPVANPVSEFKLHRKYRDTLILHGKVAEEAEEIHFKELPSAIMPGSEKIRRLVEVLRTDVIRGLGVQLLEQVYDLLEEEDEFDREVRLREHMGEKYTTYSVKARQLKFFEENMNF
T7 sequence (O75582 whole entry): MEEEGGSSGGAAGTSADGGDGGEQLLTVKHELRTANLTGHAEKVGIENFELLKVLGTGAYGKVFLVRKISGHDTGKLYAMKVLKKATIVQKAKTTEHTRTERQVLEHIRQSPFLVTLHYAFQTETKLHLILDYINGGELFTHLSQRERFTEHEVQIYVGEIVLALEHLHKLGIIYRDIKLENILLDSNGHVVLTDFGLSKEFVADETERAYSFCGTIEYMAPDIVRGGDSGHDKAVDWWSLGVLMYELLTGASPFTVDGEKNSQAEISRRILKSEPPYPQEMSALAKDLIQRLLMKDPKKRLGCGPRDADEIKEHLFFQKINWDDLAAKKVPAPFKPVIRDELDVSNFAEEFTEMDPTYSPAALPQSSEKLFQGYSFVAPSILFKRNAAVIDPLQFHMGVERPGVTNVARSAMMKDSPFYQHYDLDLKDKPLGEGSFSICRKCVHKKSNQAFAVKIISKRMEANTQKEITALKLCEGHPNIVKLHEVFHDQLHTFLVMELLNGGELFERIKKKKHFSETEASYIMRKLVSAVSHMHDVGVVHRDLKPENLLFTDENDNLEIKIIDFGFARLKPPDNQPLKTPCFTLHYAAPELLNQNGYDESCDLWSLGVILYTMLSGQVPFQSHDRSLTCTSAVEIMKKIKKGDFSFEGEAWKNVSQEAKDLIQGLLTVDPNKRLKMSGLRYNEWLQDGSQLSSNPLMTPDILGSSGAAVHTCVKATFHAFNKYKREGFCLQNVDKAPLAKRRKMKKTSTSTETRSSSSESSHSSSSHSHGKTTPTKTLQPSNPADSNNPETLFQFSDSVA
T8 sequence (Q15208 whole entry): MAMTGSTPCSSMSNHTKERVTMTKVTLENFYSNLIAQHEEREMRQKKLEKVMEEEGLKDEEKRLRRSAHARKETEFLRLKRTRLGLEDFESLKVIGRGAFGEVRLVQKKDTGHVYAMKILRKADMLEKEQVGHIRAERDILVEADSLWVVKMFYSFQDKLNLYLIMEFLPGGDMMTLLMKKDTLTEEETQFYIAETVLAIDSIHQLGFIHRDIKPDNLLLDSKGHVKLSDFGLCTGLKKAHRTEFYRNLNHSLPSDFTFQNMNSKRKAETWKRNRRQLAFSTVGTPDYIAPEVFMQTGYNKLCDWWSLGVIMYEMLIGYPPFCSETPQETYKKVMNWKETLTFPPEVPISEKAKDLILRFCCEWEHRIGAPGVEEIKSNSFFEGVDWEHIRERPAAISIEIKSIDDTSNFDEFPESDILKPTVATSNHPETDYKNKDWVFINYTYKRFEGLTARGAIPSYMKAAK
T3 sequence (P10721 26-976 V559D): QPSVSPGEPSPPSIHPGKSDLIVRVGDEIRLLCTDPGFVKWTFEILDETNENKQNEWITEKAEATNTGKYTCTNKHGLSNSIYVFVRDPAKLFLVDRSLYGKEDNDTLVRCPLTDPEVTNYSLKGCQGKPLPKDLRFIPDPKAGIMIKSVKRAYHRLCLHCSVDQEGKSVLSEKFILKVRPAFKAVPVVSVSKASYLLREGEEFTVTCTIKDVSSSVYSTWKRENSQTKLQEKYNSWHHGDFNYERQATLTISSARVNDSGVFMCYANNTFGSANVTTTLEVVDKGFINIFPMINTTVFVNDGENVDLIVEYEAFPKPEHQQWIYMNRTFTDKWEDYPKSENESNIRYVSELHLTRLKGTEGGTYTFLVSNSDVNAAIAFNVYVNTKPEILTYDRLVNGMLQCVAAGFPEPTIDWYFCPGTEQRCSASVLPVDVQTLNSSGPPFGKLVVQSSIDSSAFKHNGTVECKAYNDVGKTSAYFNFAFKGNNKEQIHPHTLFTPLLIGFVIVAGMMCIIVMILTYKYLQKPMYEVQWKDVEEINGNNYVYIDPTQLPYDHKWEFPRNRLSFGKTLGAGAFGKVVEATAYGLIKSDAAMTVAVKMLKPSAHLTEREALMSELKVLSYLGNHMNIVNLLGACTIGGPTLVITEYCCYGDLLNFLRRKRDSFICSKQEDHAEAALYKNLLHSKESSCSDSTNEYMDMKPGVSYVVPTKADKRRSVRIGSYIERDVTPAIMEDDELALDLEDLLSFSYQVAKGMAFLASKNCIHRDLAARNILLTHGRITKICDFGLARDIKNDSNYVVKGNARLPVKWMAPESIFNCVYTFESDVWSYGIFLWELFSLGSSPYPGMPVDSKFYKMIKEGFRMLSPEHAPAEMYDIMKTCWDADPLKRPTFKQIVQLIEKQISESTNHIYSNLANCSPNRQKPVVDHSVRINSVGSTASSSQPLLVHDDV
T1 sequence (P04049 whole entry): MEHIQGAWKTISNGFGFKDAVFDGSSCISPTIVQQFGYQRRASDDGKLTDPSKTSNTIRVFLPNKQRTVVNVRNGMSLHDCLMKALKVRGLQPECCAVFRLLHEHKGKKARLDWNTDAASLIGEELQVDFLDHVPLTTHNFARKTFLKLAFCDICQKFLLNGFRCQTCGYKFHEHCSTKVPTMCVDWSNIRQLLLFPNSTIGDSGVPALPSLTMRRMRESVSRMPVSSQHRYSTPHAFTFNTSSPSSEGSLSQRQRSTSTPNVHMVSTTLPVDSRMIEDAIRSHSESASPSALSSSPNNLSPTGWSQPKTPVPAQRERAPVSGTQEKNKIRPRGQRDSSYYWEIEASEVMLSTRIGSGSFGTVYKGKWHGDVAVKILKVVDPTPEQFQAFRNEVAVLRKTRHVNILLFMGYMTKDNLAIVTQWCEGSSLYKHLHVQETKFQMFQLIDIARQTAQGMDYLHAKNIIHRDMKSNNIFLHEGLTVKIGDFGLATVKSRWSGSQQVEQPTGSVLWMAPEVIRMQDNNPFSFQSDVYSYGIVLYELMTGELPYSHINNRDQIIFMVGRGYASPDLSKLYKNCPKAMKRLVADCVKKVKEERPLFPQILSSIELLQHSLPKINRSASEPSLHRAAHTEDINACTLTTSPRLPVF

Regarding `COc1ncc(-c2ccc3nccc(-c4ccnnc4)c3c2)cc1NS(=O)(=O)c1ccc(F)cc1F` [Omipalisib], the remaining activity at 1 µM at panel of 442 kinases [1] was found to be 100%; on panel of 442 kinases [2] it was 100%; on panel of 442 kinases [3], 96%; at panel of 442 kinases [4] it was 100%; at panel of 442 kinases [5], 70%; on panel of 442 kinases [6], 100%. The remaining activity at 1 µM at panel of 442 kinases [7] (setting [10]), on panel of 442 kinases [7] (setting [11]), on panel of 442 kinases [8] and on panel of 442 kinases [9] was 100% in each case.

With `Cn1c(=O)n(-c2ccc(C(C)(C)C#N)cc2)c2c3cc(-c4cnc5ccccc5c4)ccc3ncc21` [Dactolisib, 2-methyl-2-[4-(3-methyl-2-oxo-8-quinolin-3-yl-2,3-dihydroimidazo[4,5-c]quinolin-1-yl)-phenyl] propionitrile], the remaining activity at 1 µM was 94% at panel of 442 kinases [1]; 81% on panel of 442 kinases [2]; 65% on panel of 442 kinases [3]; 100% on panel of 442 kinases [4]; 57% on panel of 442 kinases [5]; 88% at panel of 442 kinases [6]. Besides, the remaining activity at 1 µM came to 64% at panel of 442 kinases [7] (setting [10]), 100% on panel of 442 kinases [7] (setting [11]), 100% at panel of 442 kinases [8] and 63% on panel of 442 kinases [9].

As for `Nc1cc(C(F)(F)F)c(-c2cc(N3CCOCC3)nc(N3CCOCC3)n2)cn1` [Buparlisib], the remaining activity at 1 µM at panel of 442 kinases [1] came out at 100%; on panel of 442 kinases [2] it was 74%; at panel of 442 kinases [3] it was 100%; on panel of 442 kinases [4] it was 90%; on panel of 442 kinases [5], 82%; at panel of 442 kinases [6], 77%. In addition, the remaining activity at 1 µM at panel of 442 kinases [7] (setting [10]) is 100%; on panel of 442 kinases [7] (setting [11]), 74%; at panel of 442 kinases [8] it was 100%; at panel of 442 kinases [9] it was 59%. The remaining activity at 10 µM on panel of 442 kinases [1] (10 µM, read-out: RAF1 (% of control at 10 µM)) was found to be 100%; on panel of 442 kinases [2] (setting [12]) it was 96%; at panel of 442 kinases [3] (setting [12]), 66%; at panel of 442 kinases [4] (setting [12]), 100%; at panel of 442 kinases [5] (10 µM, read-out: RIPK4 (% of control at 10 µM)), 88%; on panel of 442 kinases [6] (setting [12]) it was 99%. Moreover, the remaining activity at 10 µM at panel of 442 kinases [7] (kinase RPS6KA5(Kin.Dom.1-N-terminal), read-out: RPS6KA5(Kin.Dom.1-N-terminal) (% of control at 10 µM)) stood at 100%; at panel of 442 kinases [7] (kinase RPS6KA5(Kin.Dom.2-C-terminal), read-out: RPS6KA5(Kin.Dom.2-C-terminal) (% of control at 10 µM)), 96%; on panel of 442 kinases [8] (setting [12]) it was 100%; at panel of 442 kinases [9] (setting [12]) it was 59%.

In the case of `FC(F)c1nc2ccccc2n1-c1nc(N2CCOCC2)nc(N2CCOCC2)n1` [ZSTK474, 2-(difluoromethyl)-1-[4,6-di(4-morpholinyl)-1,3,5-triazin-2-yl]-1H-benzimidazole], the remaining activity at 1 µM came to 73% at panel of 442 kinases [1]; 82% on panel of 442 kinases [2]; 84% at panel of 442 kinases [3]; 100% on panel of 442 kinases [4]; 77% on panel of 442 kinases [5]; 100% on panel of 442 kinases [6]. Also, the remaining activity at 1 µM on panel of 442 kinases [7] (setting [10]) was 81%; on panel of 442 kinases [7] (setting [11]), 100%; at panel of 442 kinases [8] it was 95%; on panel of 442 kinases [9] it was 73%.

The record behind these values is PMC5564600 (Oncotarget, 2017).
